From BindingDB's records for doi:10.7270/Q2319T8T (The Scripps Research Institute Molecular Screening Center, 2007)

Molecular target: Steroidogenic factor 1 (Homo sapiens, UniProt Q13285)
Assay: SF-1 inhibitor potency, dose response, cell-based, CHO-K1, Gal4-SF-1 LBD, luciferase luminescence (AID 600)
[1] = inactive by the depositor's call

Chain of Steroidogenic factor 1 (Q13285 whole entry, the tested form may be a part): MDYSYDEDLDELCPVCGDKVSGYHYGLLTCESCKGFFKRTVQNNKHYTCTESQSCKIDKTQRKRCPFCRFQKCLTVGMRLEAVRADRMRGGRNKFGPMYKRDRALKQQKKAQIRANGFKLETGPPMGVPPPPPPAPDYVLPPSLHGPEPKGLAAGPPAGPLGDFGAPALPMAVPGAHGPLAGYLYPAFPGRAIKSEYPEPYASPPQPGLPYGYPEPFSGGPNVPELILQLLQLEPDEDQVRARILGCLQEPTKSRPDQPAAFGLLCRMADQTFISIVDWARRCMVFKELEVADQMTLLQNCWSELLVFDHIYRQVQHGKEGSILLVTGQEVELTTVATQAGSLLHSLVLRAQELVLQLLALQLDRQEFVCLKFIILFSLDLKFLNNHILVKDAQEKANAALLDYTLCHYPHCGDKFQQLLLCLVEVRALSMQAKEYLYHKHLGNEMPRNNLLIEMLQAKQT

With `COc1ccc(NC(=O)N2CCCC(c3nc(-c4ccc(C(C)C)cc4)no3)C2)cc1` (stereo unspecified) [3-[3-(4-Isopropyl-phenyl)-[1,2,4]oxadiazol-5-yl]-piperidine-1-carboxylic acid (4-methoxy-phenyl)-amide] the IC50 [1] was 14 µM.
In the case of `Cc1ccccc1NC(=O)N1CCCC(c2nc(-c3ccc(C(C)C)cc3)no2)C1` (stereo unspecified) [3-[3-(4-Isopropyl-phenyl)-[1,2,4]oxadiazol-5-yl]-piperidine-1-carboxylic acid o-tolylamide], the IC50 is reported as 7.13 µM.
With `CN(C)C(=O)CCc1nc(-c2ccc(C(C)(C)C)cc2)no1` [3-[3-(4-tert-butylphenyl)-1,2,4-oxadiazol-5-yl]-N,N-dimethyl-propanamide] the IC50 was 0.993 µM.
For `CCNC(=O)CCc1nc(-c2ccc(C(C)(C)C)cc2)no1` [3-[3-(4-tert-butylphenyl)-1,2,4-oxadiazol-5-yl]-N-ethyl-propanamide], the IC50 was 0.0401 µM.
With `CNC(=O)CCc1nc(-c2ccc(C(C)(C)C)cc2)no1` [3-[3-(4-tert-butylphenyl)-1,2,4-oxadiazol-5-yl]-N-methyl-propanamide] the IC50 was 0.058 µM.
Work on `CC(C)(C)c1ccc(-c2noc(CCC(N)=O)n2)cc1` [3-[3-(4-tert-butylphenyl)-1,2,4-oxadiazol-5-yl]propanamide] yielded an IC50 of 0.069 µM.
`O=C(O)c1cccc(COc2ccccc2Cl)c1` [3-[(2-chloranylphenoxy)methyl]benzoic acid] was tested, and the IC50 was 0.69 µM.
`O=C(O)c1cccc(COc2ccc(CO)cc2Cl)c1` [3-[(2-chloro-4-methylol-phenoxy)methyl]benzoic acid] gave an IC50 of 0.547 µM.
Compound `COc1ccc(/N=c2\scc(-c3ccc(S(=O)(=O)N4CCOCC4)cc3)n2CCCO)cc1` [3-[(2Z)-2-[(4-methoxyphenyl)imino]-4-[4-(morpholin-4-ylsulfonyl)phenyl]-1,3-thiazol-3(2H)-yl]propan-1-ol] has an IC50 of 21.9 µM.
With `Cc1cc(C(=O)Nc2cccc(C(=O)O)c2)oc1C` [3-[(4,5-dimethyl-2-furoyl)amino]benzoic acid] the IC50 was 3.13 µM.
Work on `CCOc1ccc(OCc2cccc(C(=O)O)c2)cc1` [3-[(4-ethoxyphenoxy)methyl]benzoic acid] yielded an IC50 of 0.511 µM.
For `COc1ccc(OCc2cccc(C(=O)O)c2)cc1` [3-[(4-methoxyphenoxy)methyl]benzoic acid], the IC50 was 0.421 µM.
`O=C(c1ccc(Cl)cc1)N1CCCCC(Sc2nnc(-c3ccc4c(c3)OCO4)o2)C1=O` (stereo unspecified) [3-[[5-(1,3-benzodioxol-5-yl)-1,3,4-oxadiazol-2-yl]sulfanyl]-1-(4-chlorobenzoyl)azepan-2-one] gave an IC50 of 1.07 µM.
Work on `Cc1ccsc1C(=O)OCC(=O)c1cc(C)n(CC2CCCO2)c1C` (stereo unspecified) [3-methyl-2-thiophenecarboxylic acid [2-[2,5-dimethyl-1-(2-oxolanylmethyl)-3-pyrrolyl]-2-oxoethyl] ester] yielded an IC50 greater than 0.0453 µM.
Work on `Clc1ccc(-n2ncc3c(N4CCCCCC4)ncnc32)cc1` [4-(1-azepanyl)-1-(4-chlorophenyl)pyrazolo[3,4-d]pyrimidine] yielded an IC50 of 3.19 µM.
Compound `Cc1ccnc(NC(=O)CCCOc2cc(=O)n(C)c3ccccc23)c1` [4-(1-methyl-2-oxidanylidene-quinolin-4-yl)oxy-N-(4-methylpyridin-2-yl)butanamide] has an IC50 of 6.17 µM.
`O=C(Nc1nc(-c2ccccn2)cs1)c1ccc(S(=O)(=O)N2CCCCC2)cc1` [4-(1-piperidinylsulfonyl)-N-[4-(2-pyridinyl)-2-thiazolyl]benzamide] showed an IC50 of 9.93 µM.
With `COc1cccc(-c2nnc(NC(=O)c3ccc(S(=O)(=O)N4CC(C)OC(C)C4)cc3)o2)c1` (stereo unspecified) [4-(2,6-dimethylmorpholin-4-yl)sulfonyl-N-[5-(3-methoxyphenyl)-1,3,4-oxadiazol-2-yl]benzamide] the IC50 was greater than 3.67 µM.
For `CC1CCCCN1S(=O)(=O)c1ccc(C(=O)Nc2nnc(-c3cccs3)o2)cc1` (stereo unspecified) [4-(2-methylpiperidin-1-yl)sulfonyl-N-(5-thiophen-2-yl-1,3,4-oxadiazol-2-yl)benzamide], the IC50 [1] was 17.7 µM.
With `CC1CCCN(c2ncnc3c2cnn3-c2ccccc2)C1` (stereo unspecified) [4-(3-methyl-1-piperidinyl)-1-phenylpyrazolo[3,4-d]pyrimidine] the IC50 was 6.8 µM.
Work on `c1ccc(-n2nnc3c(N4CCOCC4)ncnc32)cc1` [4-(3-phenyl-7-triazolo[4,5-d]pyrimidinyl)morpholine] yielded an IC50 greater than 99 µM.
